What follows are compounds tested against T. gondii adenosine kinase (Toxoplasma gondii, UniProt Q9TVW2) (assay: biochemical). Settings: not given.
Sequence of T. gondii adenosine kinase (Q9TVW2 whole entry): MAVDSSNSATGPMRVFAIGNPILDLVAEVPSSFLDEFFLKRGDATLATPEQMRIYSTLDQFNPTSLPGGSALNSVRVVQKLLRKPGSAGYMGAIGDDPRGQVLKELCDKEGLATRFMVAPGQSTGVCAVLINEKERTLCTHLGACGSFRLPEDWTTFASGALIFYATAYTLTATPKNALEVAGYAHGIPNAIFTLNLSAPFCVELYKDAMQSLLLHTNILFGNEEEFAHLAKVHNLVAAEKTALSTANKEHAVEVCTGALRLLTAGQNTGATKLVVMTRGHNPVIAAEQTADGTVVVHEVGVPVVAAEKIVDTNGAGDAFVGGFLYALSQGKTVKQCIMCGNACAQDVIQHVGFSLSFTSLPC
Procedure: Preparation of cytosol extracts. For the structure activity relationships studies, approximately 5×10^8 T. gondii were suspended in 1.2 ml of 50 mM N-2-hydroxyethylpiperazine-N'-2-ethanesulfonic acid (HEPES)-Cl (pH 8.0)/1 mM dithiothreitol and homogenized for 30 seconds at setting 10, using a Brinnmann Instruments Polytron homogenizer fitted with a PTA 7K1 probe. The homogenate was then centrifuged at approximately 116,000 g for 1 hour at 5° and the supernatant (cytosol extract) collected and used as the enzyme source. Fresh cytosol extracts were prepared for each experiment.
Adenosine kinase assay. T. gondii adenosine kinase activity was measured by following the formation of [^14 C]AMP from [^14 C]adenosine and ATP. […] Therefore, the standard reaction mixture contained 50 mM HEPES-Cl (pH 8.0), 1 mM dithiothreitol, 5 μM [8-^14 C]adenosine (45 Ci/mol), 0.5 mM ATP, 0.5 mM MgCl2, 25 μM (+)-EHNA or 100 μM (±)-EHNA,10-30 μl of cytosol extract (approximately 3-10 μg of protein), and either 0, 0.1, 0.25, 0.5 or 1.0 mM of the compound to be tested, in a final volume of 150 μl.
Reactions were started by the addition of [8-^14 C]adenosine, incubated at 37° for 10 minutes and terminated by placing the reaction tubes in a boiling water bath for 2 minutes. Precipitated proteins were removed by centrifugation in a microcentrifuge (approximately 13,000 g) for 5 minutes, and a 15 μl aliquot of the resulting supernatant was mixed with 5 μl of a solution containing 10 mM each of AMP and adenosine. This mixture was then spotted on silica gel thin layer chromatography plates which were developed with a mixture of chloroform/methanol/acetic acid (16:3:1). […] The substrate and product spots (which accounted for all of the radioactivity on the plates) were identified by UV quenching, cut out, and the radioactivity quantitated by liquid scintillation counting in 20 ml of Scintilene, using a Packard 460 scintillation counter. […] Enzyme velocity was calculated by multiplying the fraction of AMP formed from adenosine times the amount of adenosine in the assay, and dividing by the incubation time.
Determination and significance of AppKi values. AppKi values were used to determine the relative degree of binding of compounds to adenosine kinase as compared to adenosine. AppKi values were estimated from Dixon plots of the data (1/.nu. versus [I]), using a computer program with least squares fitting according to the general principles of Cleland (Cleland, W W, The statistical analysis of enzyme kinetic data. Adv. Enzymol. 29:1-32, 1967). The program was written by Dr. Sungman Cha (Brown University, Providence, R.I.) and modified to fit IBM BASIC by Dr. Fardos N. M. Naguib. […] It should be noted, however, that the type of inhibition (i.e., competitive, noncompetitive, or uncompetitive) produced by the compounds was not determined, nor were the compounds evaluated as substrates for T. gondii adenosine kinase.
`OC[C@H]1O[C@@H](n2cnc3c(NC4CCCCC4)ncnc32)[C@H](O)[C@@H]1O` [Compound 40] was tested, and the Ki was 240 ± 70 µM.
`C/C(=C\CNc1ncnc2c1ncn2[C@@H]1O[C@H](CO)[C@@H](O)[C@H]1O)CO` [Compound 34] showed a Ki of 280 ± 20 µM.
For `Nc1ncnc2c1ncn2[C@@H]1O[C@H](C(=O)O)[C@@H](O)[C@H]1O` [Compound 99, adenosine 5'-Carboxylic acid (5'-Carboxyladenosine)], the Ki was 1100 µM.
For `O=C(Nc1ncnc2c1ncn2[C@H]1C[C@H](O)[C@@H](CO)O1)c1ccccc1` [Compound 118, N^6 -Benzoyl-2'-deoxyadenosine], the Ki was 590 ± 20 µM.
`OC[C@H]1O[C@@H](n2cnc3c(Cl)ncnc32)[C@H](O)[C@@H]1O` [Compound 13, 6-Chloropurine riboside] gave a Ki of 9.5 µM.

Same assay, conditions: AppKi for inhibition of T. gondii adenosine kinase, 5 μM adenosine; ± range, at least two estimations
Work on `Nc1ncnc2c1ncn2[C@@H]1O[C@H](CI)[C@@H](O)[C@H]1O` [Compound 96, 5'-Iodo-5'-deoxyadenosine] yielded a Ki of 230 ± 10 µM.
Work on `Nc1nc(F)nc2c1ncn2[C@@H]1O[C@H](CO)[C@@H](O)[C@H]1O` [Compound 8] yielded a Ki of 3000 µM.

Same assay, conditions: read-out: Inhibition of T. gondii adenosine kinase
`OC[C@H]1O[C@@H](n2cnc3cccnc32)[C@H](O)[C@@H]1O` [Compound 61] was tested, and the inhibition at 1000 µM was < 10%.
For `Nc1nccc2c1ncn2[C@@H]1O[C@H](CO)[C@@H](O)[C@H]1O` [Compound 10], the inhibition at 1000 µM was < 10%.
In the case of `O=c1[nH]cnc(NC2C=C(CO)C(O)C2O)c1[N+](=O)[O-]` (stereo not shown) [Compound 126, 4-(3-Hydroxymethyl-4,5-dihydroxy-2-cyclopenten-1-yl)amino-1,6-dihydro-5-nitro-6-oxopyrimidine], the inhibition at 1000 µM is reported as < 10%.
